# From US12559529B2, “NPY2 receptor agonists” (Boehringer Ingelheim International GmbH, priority 2019, dated 2026)
# Tests used:
# normal NMRI mice = assay: Effect on acute food intake in normal NMRI mice; type: in vivo; conditions: male NMRI mice, 10 nmol/kg subcutaneously once
# Summary of the method: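 Male NMRI mice acclimatized in an HM-2 real-time food intake monitoring system, fasted 6 h before dark phase. Single subcutaneous dose of 10 nmol/kg peptide given 1 h before dark; n=7-8. Food intake expressed as % of vehicle group (50 mM phosphate pH7, 5% Mannitol).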
# [1] = target: T1, Human Neuropeptide Y2 Receptor (Homo sapiens, UniProt P49146); assay: Radioligand binding competition assay (RLB); conditions: Table 3; human 125I-PYY (1-36) 0.02 nM, Y2 receptor membranes; read-out: Ki
# T1 construct: purchased CHEMICON HTS066M
# T1 sequence (P49146 1-381): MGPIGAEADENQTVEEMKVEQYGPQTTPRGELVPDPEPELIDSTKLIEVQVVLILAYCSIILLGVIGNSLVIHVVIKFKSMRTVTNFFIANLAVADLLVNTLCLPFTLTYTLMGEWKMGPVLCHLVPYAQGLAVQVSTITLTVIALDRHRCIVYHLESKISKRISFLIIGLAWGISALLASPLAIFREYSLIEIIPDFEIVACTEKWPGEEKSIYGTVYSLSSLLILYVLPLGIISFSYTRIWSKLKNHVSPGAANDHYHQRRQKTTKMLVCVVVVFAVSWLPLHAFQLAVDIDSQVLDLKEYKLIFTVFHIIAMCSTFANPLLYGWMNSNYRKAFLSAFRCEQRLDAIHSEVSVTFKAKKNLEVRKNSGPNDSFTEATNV
# Summary of the method: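 Competition binding at commercial human NPY Y2 membrane preparations, 0.5 μg protein per well, 2 h incubation at room temperature. Bound and free ligand were separated on GF/C filters and counted; IC50 was fitted by nonlinear regression.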
Ki [1] [nM],SMILES,Acute Food Intake 24 h [% vehicle] (normal NMRI mice)
0.96,"CC(C)CC(=O)N[C@@H](C)C(=O)N1CCC[C@H]1C(=O)N[C@@H](CCC(=O)O)C(=O)N[C@@H](CCCCNC(=O)COCCOCCNC(=O)COCCOCCNC(=O)CC[C@H](NC(=O)CCCCCCCCCCCCCCCCC(=O)O)C(=O)O)C(=O)N1CCC[C@H]1C(=O)N[C@@H](CCC(=O)O)C(=O)N[C@@H](CCC(=O)O)C(=O)N[C@@H](C)C(=O)N[C@@H](C)C(=O)N[C@@H](CO)C(=O)N1CCC[C@H]1C(=O)N[C@@H](CCC(=O)O)C(=O)N[C@@H](CCC(=O)O)C(=O)N[C@@H](CC(C)C)C(=O)N[C@@H](CCC(N)=O)C(=O)N[C@@H](CCCNC(=N)N)C(=O)N[C@@H](Cc1ccc(O)cc1)C(=O)N[C@@H](Cc1ccc(O)cc1)C(=O)N[C@H](C(=O)N[C@@H](C)C(=O)N[C@@H](CC(C)C)C(=O)N[C@@H](CCCNC(=N)N)C(=O)N[C@@H](Cc1c[nH]cn1)C(=O)N[C@@H](Cc1ccc(O)cc1)C(=O)N[C@@H](Cc1ccc(O)cc1)C(=O)N[C@@H](CC(N)=O)C(=O)N[C@@H](Cc1c[nH]c2ccccc12)C(=O)N[C@@H](CC(C)C)C(=O)N[C@H](C(=O)N[C@@H](CCCNC(=N)N)C(=O)N[C@@H](CCC(N)=O)C(=O)N[C@@H](CCCNC(=N)N)C(=O)N[C@@H](Cc1ccc(O)cc1)C(N)=O)[C@@H](C)O)C(C)C [Compound 163, N{alpha-4}-(3-methylbutanoyl)-N{epsilon-7}-[2-(2-{2-[2-(2-{2-[(4S)-4-carboxy-4-(17-carboxyheptadecanamido)butanamido]ethoxy}ethoxy)acetamido]ethoxy}ethoxy)acetamido]-[4A,7K,9E,11A,18Q,22V,23A,28Y,30W,31L]hPYY (4-36)]",50
1.71,"CC(C)CC(=O)N[C@@H](C)C(=O)N1CCC[C@H]1C(=O)N[C@@H](C)C(=O)N[C@@H](CCCCNC(=O)COCCOCCNC(=O)COCCOCCNC(=O)CC[C@H](NC(=O)CCCCCCCCCCCCCCCCC(=O)O)C(=O)O)C(=O)N1CCC[C@H]1C(=O)N[C@@H](CCC(=O)O)C(=O)N[C@@H](CCC(=O)O)C(=O)N[C@@H](CC(=O)O)C(=O)N[C@@H](C)C(=O)N[C@@H](CO)C(=O)N1CCC[C@H]1C(=O)N[C@@H](CCC(=O)O)C(=O)N[C@@H](CCC(=O)O)C(=O)N[C@@H](CC(C)C)C(=O)N[C@@H](CCC(N)=O)C(=O)N[C@@H](CCCNC(=N)N)C(=O)N[C@@H](Cc1ccc(O)cc1)C(=O)N[C@@H](Cc1ccc(O)cc1)C(=O)N[C@H](C(=O)N[C@@H](CCC(=O)O)C(=O)N[C@@H](CC(C)C)C(=O)N[C@@H](CCCNC(=N)N)C(=O)N[C@@H](Cc1c[nH]cn1)C(=O)N[C@@H](Cc1ccc(O)cc1)C(=O)N[C@@H](Cc1ccc(O)cc1)C(=O)N[C@@H](CC(N)=O)C(=O)N[C@@H](Cc1c[nH]c2ccccc12)C(=O)N[C@@H](CC(C)C)C(=O)N[C@H](C(=O)N[C@@H](CCCNC(=N)N)C(=O)N[C@@H](CCC(N)=O)C(=O)N[C@@H](CCCNC(=N)N)C(=O)N[C@@H](Cc1ccc(O)cc1)C(N)=O)[C@@H](C)O)C(C)C [Compound 173, N{alpha-4}-(3-methylbutanoyl)-N{epsilon-7}-[2-(2-{2-[2-(2-{2-[(4S)-4-carboxy-4-(17-carboxyheptadecanamido)butanamido]ethoxy}ethoxy)acetamido]ethoxy}ethoxy)acetamido]-[4A,6A,7K,9E,18Q,22V,23E,28Y,30W,31L]hPYY (4-36)]",49
3.89,"CC(C)CC(=O)N[C@@H](C)C(=O)N1CCC[C@H]1C(=O)N[C@@H](C)C(=O)N[C@@H](CCCCNC(=O)COCCOCCNC(=O)COCCOCCNC(=O)CC[C@H](NC(=O)CCCCCCCCCCCCCCCCC(=O)O)C(=O)O)C(=O)N1CCC[C@H]1C(=O)N[C@@H](CCC(=O)O)C(=O)N[C@@H](CCC(=O)O)C(=O)N[C@@H](CC(=O)O)C(=O)N[C@@H](C)C(=O)N[C@@H](CCC(=O)O)C(=O)N1CCC[C@H]1C(=O)N[C@@H](CCC(=O)O)C(=O)N[C@@H](CCC(=O)O)C(=O)N[C@@H](CC(C)C)C(=O)N[C@@H](CCC(N)=O)C(=O)N[C@@H](CCCNC(=N)N)C(=O)N[C@@H](Cc1ccc(O)cc1)C(=O)N[C@@H](Cc1ccc(O)cc1)C(=O)N[C@H](C(=O)N[C@@H](CO)C(=O)N[C@@H](CC(C)C)C(=O)N[C@@H](CCCNC(=N)N)C(=O)N[C@@H](Cc1c[nH]cn1)C(=O)N[C@@H](Cc1ccc(O)cc1)C(=O)N[C@@H](Cc1ccc(O)cc1)C(=O)N[C@@H](CC(N)=O)C(=O)N[C@@H](Cc1c[nH]c2ccccc12)C(=O)N[C@@H](CC(C)C)C(=O)N[C@H](C(=O)N[C@@H](CCCNC(=N)N)C(=O)N[C@@H](CCC(N)=O)C(=O)N[C@@H](CCCNC(=N)N)C(=O)N[C@@H](Cc1ccc(O)cc1)C(N)=O)[C@@H](C)O)C(C)C [Compound 174, N{alpha-4}-(3-methylbutanoyl)-N{epsilon-7}-[2-(2-{2-[2-(2-{2-[(4S)-4-carboxy-4-(17-carboxyheptadecanamido)butanamido]ethoxy}ethoxy)acetamido]ethoxy}ethoxy)acetamido]-[4A,6A,7K,9E,13E,18Q,22V,28Y,30W,31L]hPYY (4-36)]",41
3.05,"CC(C)CC(=O)N[C@@H](C)C(=O)N1CCC[C@H]1C(=O)N[C@@H](CCC(=O)O)C(=O)N[C@@H](CCCCNC(=O)COCCOCCNC(=O)COCCOCCNC(=O)CC[C@H](NC(=O)CCCCCCCCCCCCCCCCC(=O)O)C(=O)O)C(=O)N1CCC[C@H]1C(=O)N[C@@H](CCC(=O)O)C(=O)N[C@@H](CCC(=O)O)C(=O)N[C@@H](CC(=O)O)C(=O)N[C@@H](C)C(=O)N[C@@H](CO)C(=O)N[C@@H](CCC(=O)O)C(=O)N[C@@H](CCC(=O)O)C(=O)N[C@@H](CCC(=O)O)C(=O)N[C@@H](CC(C)C)C(=O)N[C@@H](CCC(N)=O)C(=O)N[C@@H](CCCNC(=N)N)C(=O)N[C@@H](Cc1ccc(O)cc1)C(=O)N[C@@H](Cc1ccc(O)cc1)C(=O)N[C@H](C(=O)N[C@@H](CO)C(=O)N[C@@H](CC(C)C)C(=O)N[C@@H](CCCNC(=N)N)C(=O)N[C@@H](Cc1c[nH]cn1)C(=O)N[C@@H](Cc1ccc(O)cc1)C(=O)N[C@@H](Cc1ccc(O)cc1)C(=O)N[C@@H](CC(N)=O)C(=O)N[C@@H](Cc1c[nH]c2ccccc12)C(=O)N[C@@H](CC(C)C)C(=O)N[C@H](C(=O)N[C@@H](CCCNC(=N)N)C(=O)N[C@@H](CCC(N)=O)C(=O)N[C@@H](CCCNC(=N)N)C(=O)N[C@@H](Cc1ccc(O)cc1)C(N)=O)[C@@H](C)O)C(C)C [Compound 176, N{alpha-4}-(3-methylbutanoyl)-N{epsilon-7}-[2-(2-{2-[2-(2-{2-[(4S)-4-carboxy-4-(17-carboxyheptadecanamido)butanamido]ethoxy}ethoxy)acetamido]ethoxy}ethoxy)acetamido]-[4A,7K,9E,14E,18Q,22V,28Y,30W,31L]hPYY (4-36)]",52
